{"source": "paper PMC9090415", "about": "“Discovery of small molecule inhibitors of Plasmodium falciparum apicoplast DNA polymerase” (Journal of Enzyme Inhibition and Medicinal Chemistry, 2022)", "molecular_target": "P. falciparum apicoplast DNA polymerase (Pf-apPOL) (Plasmodium falciparum, UniProt Q8ILY1)", "sequence (Q8ILY1 entry or part of it)": "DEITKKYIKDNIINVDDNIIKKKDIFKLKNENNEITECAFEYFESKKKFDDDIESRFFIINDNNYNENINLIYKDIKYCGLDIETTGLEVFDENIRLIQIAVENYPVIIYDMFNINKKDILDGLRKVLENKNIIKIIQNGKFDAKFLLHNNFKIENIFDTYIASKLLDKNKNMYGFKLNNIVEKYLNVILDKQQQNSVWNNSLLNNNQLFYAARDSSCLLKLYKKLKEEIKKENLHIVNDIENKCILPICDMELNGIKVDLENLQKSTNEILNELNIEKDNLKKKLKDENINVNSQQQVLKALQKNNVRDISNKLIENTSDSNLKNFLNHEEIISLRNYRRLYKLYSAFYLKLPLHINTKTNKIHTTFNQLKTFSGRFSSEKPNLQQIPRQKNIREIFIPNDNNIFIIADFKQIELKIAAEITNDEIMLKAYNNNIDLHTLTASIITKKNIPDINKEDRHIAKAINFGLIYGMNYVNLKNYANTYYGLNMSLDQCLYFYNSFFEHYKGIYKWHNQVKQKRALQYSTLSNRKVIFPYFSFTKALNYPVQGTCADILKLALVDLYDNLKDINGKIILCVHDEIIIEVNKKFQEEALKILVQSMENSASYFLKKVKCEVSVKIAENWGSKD", "assay": "Fluorescence-based high-throughput DNA polymerase assay (molecular beacon), primary screen and dose-response", "type": "biochemical", "experimental": "The HT assay employs a molecular beacon, a stem-loop DNA template with a Cy3 dye and the Black Hole Quencher on the 3′ and 5′ ends of the DNA, respectively. Pf-apPOL concentration is based on a calculated absorptivity of ε280 = 56750 M^−1 cm^−1. Reactions were carried out at 25 °C, using Corning 3575 […] (well-volume, 20 µL). Assays testing for compound inhibition composed of reaction buffer (pH 7.9 in 50 mM potassium acetate, 20 mM Tris-acetate and 10 mM magnesium acetate), Pf-apPOL (20 nM), DNA substrate (20 nM), dNTPs (6 µM), and compound (10 µM in DMSO). The DNA and nucleotide substrates (dNTPs) were at concentrations of 20 nM and 6 µM, respectively, in the assay. Pf-apPOL was incubated in the reaction buffer with dNTPs and the compound of interest (10 µM, in the assay) at 25 °C for 10 min. The DNA substrate was then added and the reaction was allowed to proceed for 90 min at 25 °C.\nEach assay plate contained 16 negative controls (no Pf-apPOL, DMSO present) and 16 positive controls (Pf-apPOL present, no DMSO). The fluorescence of each well was determined using a BioTek Synergy Neo fluorescence plate reader using excitation and emission wavelengths of 555 and 570 nm, respectively.\nIn the above, Min is the average of fluorescence emission of the negative controls (substrate only), Max the average fluorescence emission from the positive controls (enzyme + substrate), and Test the emission from the assays in the presence of compounds (enzyme + compound + substrates). […] […] The IC50 of each compound was determined using Equation (2): (2) IC50= Vmax/(1+ (I/IC50)^n)\nIn the above, n measures cooperativity, with n > 1 indicating synergistic binding of more than a single molecule of the compound.\nTo identify apPOL inhibitors we utilised our previously developed high-throughput DNA polymerase assay. The HT assay is based on a molecular beacon DNA template that forms a stem-loop with a Cy3 dye and the Black Hole Quencher on the 3′ and 5′ ends of the DNA, respectively. DNA polymerase activity extends an annealed primer through the stem region, displacing the fluorophore from the quencher, thereby increasing its fluorescence (Figure 1(A)). The assay accurately recapitulates the kinetic behaviour of apPOL, as measured through more conventional low-throughput gel-based assays. The Z′ factor for the assay described here was 0.9 across all plates (data not shown).\nFigure 1. High-throughput screening. (A) The fluorescent-based DNA polymerase assay used to screen the compound libraries. The DNA template strand is a hairpin loop with a primer annealed to the loop. The 3’ end of the primer is 11 bases away from the 6 bp duplex. Strand displacement activity of the DNA polymerase separates the Cy3 dye from the Black hole quencher leading to an increase in fluorescent signal. (B) The high-throughput assay workflow. The DNA polymerase is incubated with […] compound for 10 min prior to addition of the hairpin substrate. The reaction is quenched at 3 different time points and the fluorescent signal is measured and % inhibition is determined using the provided equation."}
{"smiles": "O=C1c2ccccc2C(=O)c2c1oc1c3c(ccc21)OCN(C1CCCC1)C3", "note": "[KU0064306]", "values": [{"measurement": "% inhibition Apo pol 10'", "setting": "DRC-1; concentration 2.5; 10'", "result": 14.122, "unit": "%"}, {"measurement": "% inhibition Apol 90'", "setting": "DRC-1; concentration 2.5; 90'", "result": 11.9333, "unit": "%"}, {"measurement": "% inhibition apPOL 180'", "setting": "DRC-1; concentration 2.5; 180'", "result": 9.893, "unit": "%"}, {"measurement": "% inhibition Apo pol 10'", "setting": "DRC-1; concentration 5; 10'", "result": 20.6805, "unit": "%"}, {"measurement": "% inhibition Apol 90'", "setting": "DRC-1; concentration 5; 90'", "result": 18.9077, "unit": "%"}, {"measurement": "% inhibition apPOL 180'", "setting": "DRC-1; concentration 5; 180'", "result": 20.5988, "unit": "%"}, {"measurement": "% inhibition Apo pol 10'", "setting": "DRC-1; concentration 10; 10'", "result": 48.1868, "unit": "%"}, {"measurement": "% inhibition Apol 90'", "setting": "DRC-1; concentration 10; 90'", "result": 43.2395, "unit": "%"}, {"measurement": "% inhibition apPOL 180'", "setting": "DRC-1; concentration 10; 180'", "result": 45.5926, "unit": "%"}, {"measurement": "% inhibition Apo pol 10'", "setting": "DRC-1; concentration 20; 10'", "result": 73.389, "unit": "%"}, {"measurement": "% inhibition Apol 90'", "setting": "DRC-1; concentration 20; 90'", "result": 72.2655, "unit": "%"}, {"measurement": "% inhibition apPOL 180'", "setting": "DRC-1; concentration 20; 180'", "result": 74.7554, "unit": "%"}, {"measurement": "% inhibition Apo pol 10'", "setting": "DRC-1; concentration 40; 10'", "result": 87.7037, "unit": "%"}, {"measurement": "% inhibition Apol 90'", "setting": "DRC-1; concentration 40; 90'", "result": 89.2086, "unit": "%"}, {"measurement": "% inhibition apPOL 180'", "setting": "DRC-1; concentration 40; 180'", "result": 90.8162, "unit": "%"}, {"measurement": "% inhibition Apo pol 10'", "setting": "DRC-1; concentration 80 (unit not given); 10'", "result": 89.3485, "unit": "%"}, {"measurement": "% inhibition Apol 90'", "setting": "DRC-1; concentration 80; 90'", "result": 90.7443, "unit": "%"}, {"measurement": "% inhibition apPOL 180'", "setting": "DRC-1; concentration 80; 180'", "result": 92.3974, "unit": "%"}, {"measurement": "% inhibition Apo pol 5'", "setting": "DRC-2; 5'; concentration 5", "result": 23, "unit": "%"}, {"measurement": "% inhibition Apo pol 5'", "setting": "DRC-2; 5'; concentration 40", "result": 47, "unit": "%"}, {"measurement": "% inhibition Apol 40'", "setting": "DRC-2; 40'; concentration 2.5", "result": 17, "unit": "%"}, {"measurement": "% inhibition Apol 40'", "setting": "DRC-2; 40'; concentration 80", "result": 60, "unit": "%"}, {"measurement": "% inhibition ApPOL 90'", "setting": "DRC-2; 90'; concentration 2.5", "result": 17, "unit": "%"}, {"measurement": "% inhibition ApPOL 90'", "setting": "DRC-2; 90'; concentration 10", "result": 47, "unit": "%"}, {"measurement": "% inhibition ApPOL 90'", "setting": "DRC-2; 90'; concentration 20", "result": 60, "unit": "%"}, {"measurement": "% inhibition apPOL 180'", "setting": "DRC-2; 180'; concentration 5", "result": 23, "unit": "%"}, {"measurement": "% inhibition apPOL 180'", "setting": "DRC-2; 180'; concentration 10", "result": 47, "unit": "%"}, {"measurement": "% inhibition Apo pol 5'", "setting": "DRC-2; concentration 2.5; 5'", "result": 16, "unit": "%"}, {"measurement": "% inhibition Apol 40'", "setting": "DRC-2; concentration 2.5; 40'", "result": 17, "unit": "%"}, {"measurement": "% inhibition ApPOL 90'", "setting": "DRC-2; concentration 2.5; 90'", "result": 17, "unit": "%"}, {"measurement": "% inhibition apPOL 180'", "setting": "DRC-2; concentration 2.5; 180'", "result": 15, "unit": "%"}, {"measurement": "% inhibition Apo pol 5'", "setting": "DRC-2; concentration 5; 5'", "result": 23, "unit": "%"}, {"measurement": "% inhibition Apol 40'", "setting": "DRC-2; concentration 5; 40'", "result": 24, "unit": "%"}, {"measurement": "% inhibition ApPOL 90'", "setting": "DRC-2; concentration 5; 90'", "result": 25, "unit": "%"}, {"measurement": "% inhibition apPOL 180'", "setting": "DRC-2; concentration 5; 180'", "result": 23, "unit": "%"}, {"measurement": "% inhibition Apo pol 5'", "setting": "DRC-2; concentration 10; 5'", "result": 42, "unit": "%"}, {"measurement": "% inhibition Apol 40'", "setting": "DRC-2; concentration 10; 40'", "result": 46, "unit": "%"}, {"measurement": "% inhibition ApPOL 90'", "setting": "DRC-2; concentration 10; 90'", "result": 47, "unit": "%"}, {"measurement": "% inhibition apPOL 180'", "setting": "DRC-2; concentration 10; 180'", "result": 47, "unit": "%"}, {"measurement": "% inhibition Apo pol 5'", "setting": "DRC-2; concentration 20; 5'", "result": 43, "unit": "%"}, {"measurement": "% inhibition Apol 40'", "setting": "DRC-2; concentration 20; 40'", "result": 55, "unit": "%"}, {"measurement": "% inhibition ApPOL 90'", "setting": "DRC-2; concentration 20; 90'", "result": 60, "unit": "%"}, {"measurement": "% inhibition apPOL 180'", "setting": "DRC-2; concentration 20; 180'", "result": 63, "unit": "%"}, {"measurement": "% inhibition Apo pol 5'", "setting": "DRC-2; concentration 40; 5'", "result": 47, "unit": "%"}, {"measurement": "% inhibition Apol 40'", "setting": "DRC-2; concentration 40; 40'", "result": 62, "unit": "%"}, {"measurement": "% inhibition ApPOL 90'", "setting": "DRC-2; concentration 40; 90'", "result": 68, "unit": "%"}, {"measurement": "% inhibition apPOL 180'", "setting": "DRC-2; concentration 40; 180'", "result": 72, "unit": "%"}, {"measurement": "% inhibition Apo pol 5'", "setting": "DRC-2; concentration 80; 5'", "result": 44, "unit": "%"}, {"measurement": "% inhibition Apol 40'", "setting": "DRC-2; concentration 80; 40'", "result": 60, "unit": "%"}, {"measurement": "% inhibition ApPOL 90'", "setting": "DRC-2; concentration 80; 90'", "result": 65, "unit": "%"}, {"measurement": "% inhibition apPOL 180'", "setting": "DRC-2; concentration 80; 180'", "result": 70, "unit": "%"}, {"measurement": "DNA Pol", "setting": "primary screen value of the 186 hits; unit not given; 90 min, 10 µM", "result": 61}, {"measurement": "DNA Pol", "setting": "primary screen value; head prints only 'DNA Pol'; 90 min, 10 µM", "result": 61}]}
